According to ChEMBL document CHEMBL1201862, “PubChem BioAssay data set” (2004):
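Briefly, cells in 96-well plates were exposed to five compound concentrations for 48 h, and endpoints were estimated by linear interpolation. GI50 = concentration required for 50% inhibition of growth.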 Calls of active or inactive are those of the source. No stated cut-off is given here; in the data, active = GI50 up to about 1.1 µM and inactive = higher.

Key:
Test in all cases: NCI tumour cell line growth inhibition, 48 h
786-0 = tested on: 786-0
A498 = tested on: A498
A549 = tested on: A549
ACHN = tested on: ACHN
CAKI-1 = tested on: CAKI-1
CCRF-CEM = tested on: CCRF-CEM
COLO 205 = tested on: COLO 205
DLD-1 = tested on: DLD-1
DMS-114 = tested on: DMS-114
DMS-273 = tested on: DMS-273
EKVX = tested on: EKVX
HCC 2998 = tested on: HCC 2998
HCT-116 = tested on: HCT-116
HCT-15 = tested on: HCT-15
HL-60 = tested on: HL-60
HOP-18 = tested on: HOP-18
HOP-62 = tested on: HOP-62
HOP-92 = tested on: HOP-92
HT-29 = tested on: HT-29
IGROV-1 = tested on: IGROV-1
K562 = tested on: K562
KM-20L2 = tested on: KM-20L2
KM12 = tested on: KM12
LOX IMVI = tested on: LOX IMVI
LXFL 529 = tested on: LXFL 529
M14 = tested on: M14
M19-MEL = tested on: M19-MEL
MOLT-4 = tested on: MOLT-4
Malme-3M = tested on: Malme-3M
NCI-H226 = tested on: NCI-H226
NCI-H23 = tested on: NCI-H23
NCI-H460 = tested on: NCI-H460
NCI-H522 = tested on: NCI-H522
OVCAR-3 = tested on: OVCAR-3
OVCAR-4 = tested on: OVCAR-4
OVCAR-5 = tested on: OVCAR-5
OVCAR-8 = tested on: OVCAR-8
RPMI-8226 = tested on: RPMI-8226
RXF 393 = tested on: RXF 393
RXF 631 = tested on: RXF 631
SF-268 = tested on: SF-268
SF-295 = tested on: SF-295
SF-539 = tested on: SF-539
SK-MEL-28 = tested on: SK-MEL-28
SK-MEL-2 = tested on: SK-MEL-2
SK-MEL-5 = tested on: SK-MEL-5
SK-OV-3 = tested on: SK-OV-3
SN12C = tested on: SN12C
SNB-19 = tested on: SNB-19
SNB-75 = tested on: SNB-75
SNB-78 = tested on: SNB-78
SR = tested on: SR
SW-620 = tested on: SW-620
TK-10 = tested on: TK-10
U-251 = tested on: U-251
UACC-257 = tested on: UACC-257
UACC-62 = tested on: UACC-62
UO-31 = tested on: UO-31
XF498 = tested on: XF498

Measured: GI50

Oc1ccc2c(c1)OCC1(O)Cc3cc(O)c(O)cc3C21 (centres undefined)
inactive: 786-0 19.5 µM | A498 19.1 µM | A549 > 57.7 µM | ACHN 18.2 µM | CAKI-1 18.1 µM | CCRF-CEM 29.7 µM | COLO 205 16.8 µM | DLD-1 17.3 µM | DMS-114 26.7 µM | DMS-273 35.8 µM | EKVX 27 µM | HCC 2998 21.2 µM | HCT-116 21 µM | HL-60 25.6 µM | HOP-18 18.3 µM | HOP-62 > 58.1 µM | HOP-92 21.6 µM | HT-29 21.3 µM | IGROV-1 39.6 µM | K562 27.7 µM | KM-20L2 38.3 µM | KM12 32.7 µM | LOX IMVI 19.4 µM | LXFL 529 18.5 µM | M14 19.2 µM | M19-MEL 29.1 µM | MOLT-4 24.4 µM | Malme-3M 16.9 µM | NCI-H226 > 52.5 µM | NCI-H23 18.1 µM | NCI-H460 27.8 µM | NCI-H522 21.3 µM | OVCAR-3 16.2 µM | OVCAR-4 19.1 µM | OVCAR-5 22.5 µM | OVCAR-8 21.9 µM | RPMI-8226 26.5 µM | RXF 393 15.9 µM | RXF 631 41 µM | SF-268 27.1 µM | SF-295 > 55.5 µM | SF-539 17 µM | SK-MEL-28 17.5 µM | SK-MEL-2 27.1 µM | SK-MEL-5 17.7 µM | SK-OV-3 39.9 µM | SN12C 21.8 µM | SNB-19 28.7 µM | SNB-75 24.3 µM | SNB-78 14.7 µM | SR 30.8 µM | SW-620 18.6 µM | TK-10 17.4 µM | U-251 18.7 µM | UACC-257 19.9 µM | UACC-62 19.7 µM | UO-31 60.1 µM | XF498 15.2 µM
20.2 µM: HCT-15
